The values below are quoted from earlier work in patent publication US20040247626A1, “Stable aqueous dispersion of 1, 2-benzisothiazoline-3-one (bit)” (priority 2004, published 2004).

As to `O=c1[nH]sc2ccccc12` [BIT, 1,2-benzisothiazolin-3-one], the solubility in water entry is given as “sparingly soluble”.
